Consider one sequence from patent publication US20100093642A1, “NOVEL POLYPEPTIDES” (priority 2006, published 2010).

The test system of data set [1] is human breast malignant carcinoma cell line MCF-7. It counts as cell-based. The conditions noted are these: 24 h. Here is the method: The cytotoxic effects of the peptides on different human tumour cells were measured using the MTT colorimetric assay (Mosmann, 1983). […] Dissolved MIT is converted to an insoluble purple formazan by cleavage of the tetrazolium ring by dehydrogenase enzymes. This water insoluble formazan can be solubilized using isopropanol or other solvents and the dissolved material is measured spectrophotometrically. The absorbance was measured as a function of concentration of converted dye. The conversion of the soluble dye to the insoluble purple formazan is utilized in assays for measurement of cell proliferation. […] We used this assay to measure the degree of cell death caused by the peptides. MCF-7 was maintained in EMEM, A2058 in DMEM and […]-29 in RPMI-1640 medium supplemented with 10% heat inactivated […] and 1% L-glutamine-L-alanine in a humidified atmosphere of 5% CO2 at 37° C. The human embryonic fibroblast cell line, MRC-5 (which is normal fibroblasts), was cultured as a monolayer in MEM medium, under the same conditions as described for the tumour cell lines. Cells to be used in the assay were grown to a minimum of 75% confluency, trypsinated and split to single cell suspension, counted and centrifuged at 1500 rpm for 10 min. The cell pellet was resuspended to a concentration of 2×10^5 cells/ml (HT-29) or 1×10^5 (MRC-5, MCF7 and A2058) in DMEM without FBS and L-glutamine-L-alanine (assay-medium). All cell lines were routinely tested for mycoplasma infection using a PCR-based mycoplasma detection kit (MycoSensor PCR Assay Kit, Stratagene), following the supplier's instructions. All cell lines were mycoplasma free. The cytotoxicity was measured using the MTT method (Mosmann, 1983), with minor modifications. Different human tumour cells (1-2×10^5) were applied in 96-well culture plates in a volume of 100 μl DMEM medium and incubated at 37° C. for 24 hours. The medium was removed and the cells were treated with 100 μl of peptide solution (concentrations ranging from 0 to 200 μg/ml), diluted in a) RPMI-1640 medium supplemented with 5% heat inactivated FBS, or b) RPMI-1640 medium without FBS. The plates were incubated at 37° C. for 24 hours. Cells treated with Triton X-100 (1%) was used as positive control (100% killing) whereas cells plus medium only were used as negative control. […] A volume of 70 μl of the supernatant was then removed and […] (0.04 M HCl in isopropanol) added to each well. The plate was placed on a shaker for 1 hour at room temperature and read spectrophotometrically at 590 nm in a microtiter plate reader (DTX880 Multimode Detector, Beckman Coulter).

Another data set concerns TNF-α. In words: Inhibition of LPS induced TNF-α response in THP-1 cells (ELISA). It counts as cell-based, human. The conditions noted are these: Ratio TC50 (THP-1)/EC50 (anti-TNFα). Here is the method:
FIG. 12. Antiinnflammatory response measured as inhibition of tumor necrosis factor alpha (TNF-α) response in THP-1 cells after stimulation with LPS. THP-1 cells (1×10^6 cells/ml) were treated with P17 derivates in different concentrations for 1 hour, and subsequently stimulated with 100 ng/ml LPS for 6 hours. LPS was used as control for induction of TNF-α. (set as 100% response), RPMI media was used as negative (non-stimulated) control, and cycloheximide (Chx, 10 μg/ml) was used as a an inhibitory control for LPS induced TNF-α. The data presented are the average of two parallells. (A) The effect of the peptides P17 HC and P17 HC (1-20). (B) The effect of the peptides P17 HC (11-20) and P17 HC-Br.
The THP-1 cells (ATCC, TIB-202) were maintained in suspension in RPMI-1640 medium with 25 mM HEPES and 2 mM Glutamax I supplemented with 10% FBS (growth medium) in a humidified atmosphere of 5% CO2 at 37° C. Cells to be used in the assay were grown to a density of 8×10^5-1×10^6 cells/ml. The cells were centrifuged for 7 min at 200 g and the cell pellet was resuspended to a concentration of 10^6 cells/ml in RPMI-1640 with 10% FBS.
To allow examination of antiinflammatory effects of the peptides on basal and stimulated cytokine production, peptide-treated macrophages were cultured in the presence of LPS and the levels of TNF-α were measured. The primary screening was based on a mammalian cell line; the human THP-1 line. This line is of monocyte/macrophage origin and responds to various stimuli by increased production of cytokines, like TNF-α and the IL-1β, (Wang et al. 2000). To induce monocyte-macrophage differentiation, THP-1 cells were cultured in 96-well culture plates (10^6 cells/well) in a volume of 100 μl RPMI 1640 medium, containing 50 ng/ml PMA (which is known to induce the maturation of monocytes) and incubated in a humidified atmosphere of 5% CO2, at 37° C. for 48 hours. The medium was then removed and the cells were washed with PBS, added 100 μl fresh medium (without PMA) and incubated for another 24 hours. Medium was removed and the adherent macrophages were treated with 100 μl of peptide solution (concentrations ranging from 0 to 400 μg/ml), diluted in RPMI-1640 medium with 25 mM HEPES and 2 mM Glutamax I, but without […] (assay medium). After incubation at 37° C. for 1 hour, the cells were added LPS (0.1 μg/ml) and further incubated for 6 hours. […] TNF-α concentrations were quantified by the Human TNF-α ELISA MAX kit (BioLegend), according to the manufacturer's instructions. Duplicate readings for each standard, control and sample were recorded. The average absorbance for each set of standards, controls, and samples was calculated using a standard curve. Concentrations were determined by extrapolation on the standard curve.
A general note: An ELISA detects its analyte on a solid surface through an enzyme-linked reagent.

The subject of data set [2] is C. glutamicum (ATCC 13032). It counts as cell-based, Corynebacterium glutamicum. Here is the method: (§1) The antibacterial activities of the different peptides were determined by continuous monitoring of bacterial growth with a Bioscreen C microbiology reader (Labsystems Oy, Helsinki, Finland). The test was performed in 100-well flat-bottomed honeycomb plates, in which 50 μl of test fractions were incubated with 50 μl of a suspension of an actively growing culture of bacteria diluted in Mueller Hinton medium to a starting concentration of 3×10^4 cells per ml. […] [NT] 13032) and S. aureus (ATCC 9144), were chosen as test bacteria. […] Polymyxin B (Sigma, St.

A further data set concerns E. coli (ATCC 25922). It counts as cell-based, Escherichia coli. As to the method:
as §1

For a further data set, the system named is Saccharomyces cerevisiae. The conditions noted are these: 48 h. Here is the method: (§2) The various derivates of P17 (brominated and non-brominated) were tested for their ability to inhibit fungal growth of the yeast strains Saccaharomyces cerevisiae sp, Candida albicans (ATCC 10231) and Rodotorula sp., and the filamentous strains Botrytis cinerea 101, Penicillium rogveforti, and Fusarium sp. All strains, except C. albicans, were a gift from Prof. A. Tronsmo (The Norwegian University of Life Sciences, Ås, Norway). The fungi were cultivated on potato dextrose agar, supplemented with 2% glucose, at room temperature. Before antifungal testing, the fungi were dissolved in potato dextrose broth (Difco) at half-strength. Cell concentration was determined and adjusted after counting in a Bürker chamber. The filamentous fungi were filtered through a piece of cotton before counting. An aliquot of 50 μl of fungal spores (final concentration 2×10^5 spores per ml) were inoculated in microtiter plates (96 wells) along with 50 μl peptide solution. Peptides, dissolved in distilled water, were tested at final concentrations (two-fold dilutions) ranging from 50 μM to 0.1 μM. Cultures were grown in the dark (without shaking) and with a moist chamber at 25° C. (37° C. for C. albicans). Growth inhibition was determined microscopically after 48 h of incubation. MIC was determined as the lowest concentration of peptide resulting in 50% inhibition of visible growth.

The subject of data set [3] is Candida albicans (ATCC 10231). To be noted: ATCC 10231, 48 h. As to the method:
as §2

In another data set the test system is Botrytis cinerea 101. The conditions noted are these: 48 h. Here is the method: as §2
The next data set deals with S. aureus (ATCC 9144). It counts as cell-based, Staphylococcus aureus. To be noted: ATCC 9144. Here is the method: as §1
A further data set has as its system Pseudomonas aeruginosa. The format is cell-based. As to the method: as §1

No end group written: not given here. Where only a bound is given, the exact number is not on record here.

For the sequence SHAVKSGIHA [P17 HC (11-20)], the half-inhibitory concentration (IC50) (commonly the midpoint of a concentration-inhibition curve) in data set [1] was determined as 103 µM. Also, the “Therapeutic index TC50/EC50” value in the data set on TNF-α is >2.2. Besides, in data set [2], the “Minimal inhibitory concentration, C. glutamicum” value is >100 µM. Moreover, the “Minimal inhibitory concentration, E. coli” value with E. coli (ATCC 25922) is >100 µM. Besides, in the data set on Saccharomyces cerevisiae, the “Minimal inhibitory concentration (MIC), Saccharomyces cerevisiae” value is >100 µM. The “Minimal inhibitory concentration (MIC), Candida albicans” value in data set [3] was >100 µM. Moreover, in the data set with Botrytis cinerea 101, the “Minimal inhibitory concentration (MIC), Botrytis cinerea” value was >100 µM. The “Minimal inhibitory concentration, S. aureus” value in the data set with S. aureus (ATCC 9144) was >100 µM. For the same sequence, the “Minimal inhibitory concentration, P. aeruginosa” value with Pseudomonas aeruginosa was >100 µM.
